Results published in US11738072B2, “Tumor vaccine and uses thereof” (WestVac Biopharma Co., Ltd., priority 2017, dated 2023).

Key:
A549 cells = experiment: A549 cell death test by PI-AnnexinV (fluorescence microscope); type: cell-based; settings: A549, 24 h; complex mass ratio 1:6
Description: A549 cells in the logarithmic growth phase were prepared into single cell suspension, inoculated into a 6-well plate as per approximately 1×10^5 cells per well. Then, 2 ml of medium was added to each well and cultured in a 5% CO2 incubator at 37° C. for 24-36 h.
a. 5 mg/ml of pMVA-1 plasmid vector solution was added to 100 μl of 1640 serum-free medium for preparing a pMVA-1 plasmid vector control group;
b. 1 mg/ml of DOTAP cationic lipid was dissolved in 100 μl of 1640 serum-free medium for preparing a DOTAP cationic lipid control group;
c. the pMVA-1/DOTAP complex with a mass ratio of 1:6 prepared in Example 5 was dissolved in 100 μl of 1640 serum-free medium for preparing a pMVA-1/DOTAP complex experimental group.
Some of the medium was pipetted from the 6-well plate in Step (1) until the medium in each well reached 900 μl. The pMVA-1/DOTAP complex (pMVA-DOTAP) (prepared in Step (2)) of the experimental group as well as the pMVA-1 plasmid vector (PMVA) and DOTAP cationic lipid (DOTAP) of the control group was added to A549 cells cultured in Step (1) respectively to make the total volume of 1 ml. At the same time, a blank control group containing only medium was made, and incubated in a 5% of CO2 incubator at 37° C. for 24 h. […]
The cells stained with PI and Annexin V in Step (4) were washed once with PBS and observed under a fluorescence microscope. […]

[1] = tested on: bone marrow-derived dendritic cells (BMDC); experiment: FITC-Dextran uptake by BMDC, flow cytometry; type: cell-based, mouse; settings: BMDC stimulated 24 h by CT26 cells treated with sample
Description: a. Bone marrow cells were obtained from the femur and tibia of mouse, sieved and collected in a centrifuge tube, centrifuged at 280 g and at room temperature for 5 min, and the supernatant was discarded.
b. 10 ml of red cell lysate was added to the cells described in Step a, standing for 3 min at room temperature, centrifuged at 280 g and at room temperature for 5 min, and the supernatant was discarded.
c. The bone marrow cells described in Step b were washed twice with PRMI-1640 medium, centrifuged at 280 g and at room temperature for 10 min, live cell count was carried out, the cell concentration was adjusted to 1×10^6 cells/ml by RPMI-1640 complete medium.
d. In Step c, the recombinant mouse GM-CS with a final concentration of 10 ng/ml was added and 4 ml/well cell suspension was inoculated into a 6-well plate, and cultured in a 37° C., 5% CO2 incubator. When cell colonies grew on the bottom of the plate, the medium was pipetted, washed once with the medium, and 1640 complete medium containing 10 ng/ml of GM-CSF was added to each well.
e. […]
d. Test and analysis of fluorescence intensity of BMDC based on flow cytometry.

lysosomes in A549 cells = experiment: Lysosomal acidity gradient by Lysotracker Red / YOYO1 probes; type: cell-based; settings: flow cytometry, 1 h, 3 h, 6 h and 9 h
Description: a. Preparation of YOYO1 working fluid: the YOYO1 stock solution was diluted with 1640 serum-free medium at the volume ratio of 1:200;
b. The pMVA-1 plasmid was added to the YOYO1 working fluid prepared in the Step (1) according to a volume ratio of 1:40, and incubated at 37° C. for 1 h.
a. The YOYO1 fluorescent labeled pMVA-1 plasmid prepared in Step 1 was mixed with the DOTAP cationic lipid to form a complex;
b. The YOYO1 fluorescently labeled pMVA-1/DOTAP complex prepared in Step a was added to A549 cells, followed by making two control groups i.e. YOYO1 fluorescently labeled pMVA-1 plasmid group (PMVA) and DOTAP cationic lipid group (DOTAP), and blank control group containing cell culture fluid only.
(1) Preparation of Lysotracher Red working fluid: the Lysotracher Red stock solution was added to the cell culture fluid at a volume ratio of 1:20000 and incubated at 37° C.
a. The A549 cell culture fluid in Step 1 was removed, the Lysotracker Red staining working fluid prepared in Step (1) was added to the cells, and incubated at 37° C. for 1 h; […]
c. A549 cells in Step b were collected and the number of fluorescent cells were quantitatively tested by flow cytometry.

[2] = tested on: mouse cervical cancer cell line U14; experiment: Mice U14 subcutaneous model, complex combined with chemotherapy; type: in vivo, C57 female mice; settings: U14 sc
Description: C57 female mice aged 6-8 weeks were raised. The mouse cervical cancer cell line U14 cultured to the logarithmic growth phase was prepared into a cell suspension and the cell density was 2×10^7/ml. Experimental animals were subcutaneously injected on the right back, with an injection system of 100 μl per mouse. When the tumor could be palpated (tumor volume is about 4 mm×4 mm×3 mm, i.e. the 5th day after inoculation), the mice were randomly divided into 6 groups, and administrated every 3 days for a total of 8 times according to the grouping and treatment scheme in Table 16. The tumor volume was measured every three days. After administration for 8 times, the mice were killed and subcutaneous tumors were dissected for examination.
Wherein, the administration volume is 100 μl per mouse, DDP is intraperitoneally administrated once a week. DDP is Cisplatin and LP is pMVA-1/DOTAP complex.

## CCCCCCCC/C=C\CCCCCCCC(=O)OCC(C[N+](C)(C)C)OC(=O)CCCCCCC/C=C\CCCCCCCC (stereo not shown) [DOTAP, 1,2-dioleoyl-3-trimethylammonium-propane]
A549 cells
  PI-positive and AnnexinV-positive cells: did not indicate obvious PI uptake and AnnexinV-labeled positive cells
[1]
  FITC average fluorescence intensity of CD11c positive DC: decreased significantly
Lysosomes in A549 cells
  Lysotracker Red fluorescence intensity: did not change significantly
[2]
  lymphocyte infiltration in tumor tissue: less common
